pIC50: −log10 of the molar value. Like-named read-outs stand apart in the source and are kept apart here.
Test system: pERK in NCI-H358 cells
Assay: Cell-based pERK HTRF assay (pERK inhibition in H358 cells)
Settings: pERK inhibition IC50, NCI-H358 cells, 30 min incubation, read-out: PERK in H358 cell
Experimental: On Day 1, cells (NCI-H358) were seeded into 96-well plates at 4×10^4 cells/well in complete growth media (RPMI, 10% FBS).
The source plate was created with compounds diluted in media at 5-fold the final assay concentration. […] 20 μL was transferred onto the cell plates (final volume in wells was 100 μL). Plates were harvested after 30 min incubation by aspirating media and adding kit-supplied 1× supplemented lysis buffer to all wells (75 μl per well). Plates were then placed on a plate shaker and incubated at 850 rpm for an additional 30 min.
Antibody mixture solution was prepared by diluting aliquoted d2 and Eu Cryptate antibodies 1:20 in kit supplied detection buffer, then mixed the diluted antibodies solutions (1:1 v:v).
Samples were homogenized by pipetting up and down and then transferred (16 μL of cell lysates) from the 96-well cell culture plate to two wells of the HTRF 384-well detection plate containing the antibody solution. Plates were centrifuged (524 g for 1 min) and allowed to incubate between 4 and 24 h at room temperature. Maximum signal is reached after 4 h incubation time and remains stable over a period of 24 hours. Therefore, readings can be made between 4 and 24 h of incubation.

SMILES | pIC50 (Homo sapiens, NCI-H358, 0.5 h) | pIC50
C=CC(=O)N1CC[C@@H](N(C)c2nc(OC[C@@H]3C[C@@H](F)CN3C)nc3c(F)c(-c4ccc(F)c5sc(N)nc45)c(C(F)(F)F)cc23)C1 (atropisomer, axis not shown) [Compound 232] | – | 6.00 to 7.00
C=CC(=O)N1C[C@H](N(C)c2ncnc3c(F)c(-c4ccc(F)c5sc(N)nc45)c(C(F)(F)F)cc23)C2(CC2)C1 (atropisomer, axis not shown) [Compound 264] | – | < 6.00
C=CC(=O)N1CCC(N(C)c2ncnc3c(F)c(-c4ccc(F)c5sc(N)c(C#N)c45)ccc23)[C@H]1C (some centres unmarked) [Compound 462] | < 6.00 | –
CC#CC(=O)N1CCN(c2nc(OCC34CCCN3CC(C)(C)C4)nc3c(F)c(-c4ccc(F)c5sc(N)nc45)c(C(F)(F)F)cc23)CC1 (centres unmarked) [Compound 170] | 6.00 to 7.00 | –
C=CC(=O)N1CC[C@@H](N(CC)c2nc(OC[C@@]34CCCN3C[C@H](F)C4)nc3cc(-c4ccc(F)c5sc(N)c(C#N)c45)c(F)cc23)[C@H]1COC [Compound 437] | 6.00 to 7.00 | –
C=CC(=O)N1C[C@H](N(C)c2ncnc3c(F)c(-c4ccc(F)c5sc(N)nc45)c(C(F)(F)F)cc23)C[C@H]1C (atropisomer, axis not shown) [Compound 250] | – | 6.00 to 7.00
C=CC(=O)N1CCC(N(CC)c2nc(OC[C@@]34CCCN3C[C@H](F)C4)nc3cc(-c4ccc(F)c5sc(N)c(C#N)c45)ccc23)[C@H]1COC (some centres unmarked) [Compound 440] | 6.00 to 7.00 | –
C=CC(=O)N1CC[C@@H](N(C)c2nc(OC[C@@]34CCCN3C[C@H](F)C4)nc3c(F)c(-c4ccc(F)c5sc(N)c(C#N)c45)c(C(F)(F)F)cc23)[C@H]1C (single isomer, unassigned) [Compound 434] | – | > 7.00
C=CC(=O)N1CC[C@H](N(C)c2nc(OC[C@@]34CCCN3C[C@H](F)C4)nc3c(F)c(-c4ccc(F)c5sc(N)c(C#N)c45)c(C(F)(F)F)cc23)[C@@H]1C (single isomer, unassigned) [Compound 473] | – | > 7.00
C=CC(=O)N1CCC(N(C)c2nc(OC[C@@H]3CCCN3C)nc3c(F)c(-c4ccc(F)c5sc(N)c(C#N)c45)ccc23)[C@H]1COC (some centres unmarked) [Compound 432] | 6.00 to 7.00 | –
C=CC(=O)N1CCC(N(C)c2nc(OC[C@@]34CCCN3C[C@H](F)C4)nc3c(F)c(-c4ccc(F)c5sc(N)nc45)ccc23)[C@H]1C (some centres unmarked) [Compound 413] | 6.00 to 7.00 | –
CC#CC(=O)N(C)C1CN(c2nc(OCC34CCCN3CCC4)nc3c(F)c(-c4ccc(F)c5sc(N)nc45)c(Cl)cc23)C1 [Compound 172] | < 6.00 | –
C=CC(=O)N1CCN(c2nc(OCC34CCCN3CCC4)nc3c(F)c(-c4ccc(F)c5sc(N)nc45)c(C(C)(F)F)cc23)CC1 [Compound 284] | < 6.00 | –
C=CC(=O)N1C[C@H](C)N(c2nc(OC[C@@]34CCCN3C[C@H](F)C4)nc3c(F)c(-c4ccc(F)c5sc(NC(C)=O)c(C#N)c45)c(C(F)(F)F)cc23)C[C@H]1C [Compound 378] | 6.00 to 7.00 | –
C=CC(=O)N1CC[C@@H](N(C)c2nc(OC[C@@]34CCCN3C[C@H](F)C4)nc3c(F)c(-c4ccc(F)c5sc(N)nc45)c(C(F)(F)F)cc23)C1 (single isomer, unassigned) [Compound 240] | – | 6.00 to 7.00
C=CC(=O)N1CC(Nc2nc(OCC34CCCN3CCC4)nc3c(F)c(-c4ccc(F)c5sc(N)nc45)c(-c4ccoc4)cc23)C1 [Compound 70, 1-(3-((7-(2-amino-7-fluorobenzo[d]thiazol-4-yl)-8-fluoro-6-(furan-3-yl)-2-((tetrahydro-1H-pyrrolizin-7a(5H)-yl)methoxy)quinazolin-4-yl)amino)azetidin-1-yl)prop-2-en-1-one] | < 6.00 | –
C=CC(=O)N1CC[C@@H](N(C)c2nc(OCC34CCCN3CCC4)nc3c(F)c(-c4cc(O)cc5ccccc45)c(C(F)(F)F)cc23)C1 [Compound 226] | 6.00 to 7.00 | –
C=CC(=O)N1CC(Nc2nc(OC[C@@H]3C[C@@H](F)CN3C)nc3c(F)c(-c4ccc(F)c5sc(N)nc45)c(Cl)cc23)C1 [Compound 63] | 6.00 to 7.00 | –

More lines, now with the values ahead:

pIC50 (Homo sapiens, NCI-H358, 0.5 h) | pIC50 | SMILES
> 7.00 | – | C=CC(=O)N1CC[C@@H](N(CC)c2nc(OC[C@@]34CCCN3C[C@H](F)C4)nc3c(F)c(-c4ccc(F)c5sc(N)nc45)c(C(F)(F)F)cc23)C1 [Compound 257]
6.00 to 7.00 | – | C=CC(=O)N1CC[C@@H](N(CC)c2nc(OC[C@@]34CCCN3C[C@H](F)C4)nc3c(F)c(-c4ccc(F)c5sc(N)c(C#N)c45)c(Cl)cc23)[C@H]1C [Compound 418]
> 7.00 | – | C=CC(=O)N1CCC(N(C)c2nc(OC[C@@H]3CC4(CC4)CN3C)nc3c(F)c(-c4ccc(F)c5sc(N)c(C#N)c45)ccc23)[C@H]1C (some centres unmarked) [Compound 436]
6.00 to 7.00 | – | CN1CCC[C@H]1COc1nc(NC2CCN(C#N)C2)c2cc(Cl)c(-c3ccc(F)c4sc(N)nc34)c(F)c2n1 (some centres unmarked) [Compound 51]
6.00 to 7.00 | – | C=CC(=O)N1C[C@@H](C)[C@@H](N(C)c2nc(OC[C@@]34CCCN3C[C@H](F)C4)nc3c(F)c(-c4ccc(F)c5sc(N)nc45)c(C(F)(F)F)cc23)C1 [Compound 292]
> 7.00 | – | C=CC(=O)N1CCC(N(CC)c2nc(OC[C@@]34CCCN3C[C@H](F)C4)nc3cc(-c4ccc(F)c5sc(N)c(C#N)c45)ccc23)[C@H]1C (some centres unmarked) [Compound 431]
> 7.00 | – | C=CC(=O)N1C[C@H](C)N(c2nc(OC[C@@]34CCCN3C[C@H](F)C4)nc3c(F)c(-c4ccc(F)c5sc(N)nc45)c(C(F)F)cc23)C[C@H]1C [Compound 291]
> 7.00 | – | C=CC(=O)N1CCC(N(C)c2nc(OC[C@@H]3C[C@@H](F)CN3C)nc3c(F)c(-c4ccc(F)c5sc(N)c(C#N)c45)ccc23)[C@H]1C (some centres unmarked) [Compound 429]
> 7.00 | – | C=CC(=O)N1C[C@H](C)N(c2nc(OC[C@]34CCCN3C[C@@H](F)C4)nc3c(F)c(-c4ccc(F)c5sc(N)c(C#N)c45)c(C(F)(F)F)cc23)C[C@H]1C [Compound 334]
> 7.00 | – | C=CC(=O)N1C[C@H](N(C)c2nc(OC[C@@]34CCCN3C[C@H](F)C4)nc3c(F)c(-c4ccc(F)c5sc(N)nc45)c(C(F)(F)F)cc23)C[C@H]1C [Compound 274]
> 7.00 | – | C=CC(=O)N1CCN(c2nc(OCC34CCCN3CCC4)nc3c(F)c(-c4ccc(F)c5sc(N)nc45)c(C(F)(F)F)cc23)CC1 [Compound 80, 1-(4-(7-(2-amino-7-fluorobenzo[d]thiazol-4-yl)-8-fluoro-2-((tetrahydro-1H-pyrrolizin-7a(5H)-yl)methoxy)-6-(trifluoromethyl)quinazolin-4-yl)piperazin-1-yl)prop-2-en-1-one]
> 7.00 | – | C=CC(=O)N1C[C@H](C)N(c2nc(OC[C@@]34CCCN3C[C@H](F)C4)nc3cc(-c4ccc(F)c5sc(N)c(C#N)c45)c(C(F)(F)F)cc23)C[C@H]1C [Compound 304]
> 7.00 | – | C=CC(=O)N1C[C@H](C)N(c2nc(OC[C@@]34CCCN3C[C@@H](F)C4)nc3c(F)c(-c4ccc(F)c5sc(N)nc45)c(C(F)(F)F)cc23)C[C@H]1C [Compound 219]
> 7.00 | – | C=CC(=O)N1C[C@H](C)N(c2nc(OC[C@]34CCCN3C[C@H](OC)C4)nc3c(F)c(-c4ccc(F)c5sc(N)nc45)c(C(F)(F)F)cc23)C[C@H]1C [Compound 269]
> 7.00 | – | C=CC(=O)N1CCC(N(C)c2nc(OC[C@@]34CCCN3C[C@H](F)C4)nc3cc(-c4ccc(F)c5sc(N)c(C#N)c45)c(C#N)cc23)[C@H]1C (stereo partly drawn) [Compound 387, 4-((1-acryloyl-2-methylpyrrolidin-3-yl)(methyl)amino)-7-(2-amino-3-cyano-7-fluorobenzo[b]thiophen-4-yl)-2-(((2R,7aS)-2-fluorotetrahydro-1H-pyrrolizin-7a(5H)-yl)methoxy)quinazoline-6-carbonitrile]
> 7.00 | – | C=CC(=O)N1CC[C@@H](N(C)c2nc(OC[C@@]34CCCN3C[C@H](F)C4)nc3c(F)c(-c4ccc(F)c5sc(N)c(C#N)c45)ccc23)[C@H]1C [Compound 358, 4-(4-(((2R,3R)-1-acryloyl-2-methylpyrrolidin-3-yl)(methyl)amino)-8-fluoro-2-(((2R,7aS)-2-fluorotetrahydro-1H-pyrrolizin-7a(5H)-yl)methoxy)quinazolin-7-yl)-2-amino-7-fluorobenzo[b]thiophene-3-carbonitrile]
> 7.00 | – | C=CC(=O)N1CCN(c2nc(OC[C@@]34CCCN3C[C@@H](F)C4)nc3c(F)c(-c4ccc(F)c5sc(N)nc45)c(C(F)(F)F)cc23)C[C@H]1C [Compound 220]
> 7.00 | – | C=CC(=O)N1CCN(c2nc(OCC34CCCN3CC(F)(F)C4)nc3c(F)c(-c4ccc(F)c5sc(N)nc45)c(C(F)(F)F)cc23)CC1 (centres unmarked) [Compound 192]
> 7.00 | – | C=CC(=O)N1C[C@H](C)N(c2nc(OC[C@@]34CCCN3C[C@H](OC)C4)nc3c(F)c(-c4ccc(F)c5sc(N)nc45)c(C(F)(F)F)cc23)C[C@H]1C (atropisomer, axis not shown) [Compound 289]
> 7.00 | – | C=CC(=O)N1CCC(N(C)c2nc(OC[C@@H]3C[C@@H](OC)CN3C)nc3c(F)c(-c4ccc(F)c5sc(N)c(C#N)c45)ccc23)[C@H]1C (some centres unmarked) [Compound 430]
> 7.00 | – | C=CC(=O)N1C[C@H](C)N(c2nc(OC[C@@]34CCCN3C[C@H](F)C4)nc3c(F)c(-c4ccc(F)c5sc(N)nc45)c(C#N)cc23)C[C@H]1C [Compound 326]
> 7.00 | – | C=C(F)C(=O)N1CC[C@@H](N(C)c2nc(OC[C@@]34CCCN3C[C@H](F)C4)nc3c(F)c(-c4ccc(F)c5sc(N)nc45)c(C(F)(F)F)cc23)C1 [Compound 308]
> 7.00 | – | C=CC(=O)N1CCN(c2nc(OC[C@]34CCCN3C[C@H](F)C4)nc3c(F)c(-c4ccc(F)c5sc(N)nc45)c(C(F)(F)F)cc23)[C@H](C)C1 [Compound 196]
